Here are results for five molecules from ChEMBL document CHEMBL3124777, “Synthesis and biological evaluation of thiazoline derivatives as new antimicrobial and anticancer agents” (Eur J Med Chem, 2014).

The test system of assay [1] is C6. Kind of assay: Cytotoxicity against rat C6 cells after 24 hrs by MTT assay. In kind it is functional, cell-based. As to conditions: C6, 24 h. (Tetrazolium dyes change colour on reduction, which living cells bring about.)
The test system of another assay is NIH3T3. The assay can be described thus: Cytotoxicity against mouse NIH/3T3 cells after 24 hrs by MTT assay. It is filed as cell-based. As to conditions: NIH3T3, 24 h.
For assay [2], the system named is C6. Kind of assay: Cytotoxicity against rat C6 cells assessed as cell viability at 200 ug/ml after 24 hrs by MTT assay relative to control. In kind it is functional. The note with it: C6, 24 h, read-out: Activity.
Assay [3] deals with C6. The assay can be described thus: Cytotoxicity against rat C6 cells assessed as cell viability at 100 ug/ml after 24 hrs by MTT assay relative to control. In kind it is functional. The note with it: C6, 24 h, read-out: Activity.
Assay [4] concerns C6. The assay can be described thus: Cytotoxicity against rat C6 cells assessed as cell viability at 50 ug/ml after 24 hrs by MTT assay relative to control. It is filed as functional. The note with it: C6, 24 h, read-out: Activity.
Assay [5] has as its system C6. The assay can be described thus: Cytotoxicity against rat C6 cells assessed as cell viability at 25 ug/ml after 24 hrs by MTT assay relative to control. It is filed as functional. The note with it: C6, 24 h, read-out: Activity.
Assay [6] concerns C6. The assay can be described thus: Cytotoxicity against rat C6 cells assessed as cell viability at 12 ug/ml after 24 hrs by MTT assay relative to control. In kind it is functional. The note with it: C6, 24 h, read-out: Activity.
Assay [7] deals with C6. Kind of assay: Cytotoxicity against rat C6 cells assessed as cell viability at 6 ug/ml after 24 hrs by MTT assay relative to control. It is filed as functional. As to conditions: C6, 24 h, read-out: Activity.
The subject of the next assay is Candida albicans. The assay can be described thus: Antimicrobial activity against Candida albicans ATCC 22019 after 18 to 24 hrs by microbroth dilution method. In kind it is functional. (In broth dilution the organism is exposed to a series of concentrations in liquid medium.)
In a further assay the test system is Fusarium culmorum. Kind of assay: Antimicrobial activity against wild type Fusarium culmorum after 48 to 72 hrs by microbroth dilution method. In kind it is functional.
The next assay deals with Fusarium verticillioides. The assay can be described thus: Antimicrobial activity against Fusarium moniliforme NRRL 1866 after 48 to 72 hrs by microbroth dilution method. It is filed as functional.
The next assay deals with Fusarium solani. Kind of assay: Antimicrobial activity against Fusarium solani NRRL 13414 after 48 to 72 hrs by microbroth dilution method. It is filed as functional.
The next assay has as its system Aspergillus ochraceus. The assay can be described thus: Antimicrobial activity against Aspergillus ochraceus NRRL 3174 after 48 to 72 hrs by microbroth dilution method. It is filed as functional.
Another assay relates to Trichoderma harzianum. The assay can be described thus: Antimicrobial activity against Trichoderma harzianum NRRL 20565 after 48 to 72 hrs by microbroth dilution method. In kind it is functional.
In another assay the test system is Penicillium chrysogenum. The assay can be described thus: Antimicrobial activity against Penicillium chrysogenum NRRL 1951 after 48 to 72 hrs by microbroth dilution method. In kind it is functional.
The test system of another assay is Aspergillus parasiticus. Kind of assay: Antimicrobial activity against Aspergillus parasiticus NRRL 465 after 48 to 72 hrs by microbroth dilution method. In kind it is functional.
The test system of another assay is Bacillus subtilis. Kind of assay: Antimicrobial activity against Bacillus subtilis NRS-744 after 18 to 24 hrs by microbroth dilution method. In kind it is functional.
Another assay concerns Micrococcus luteus. The assay can be described thus: Antimicrobial activity against Micrococcus luteus NRLL B-4375 after 18 to 24 hrs by microbroth dilution method. In kind it is functional.
The next assay concerns Pseudomonas aeruginosa. The assay can be described thus: Antimicrobial activity against Pseudomonas aeruginosa […] after 18 to 24 hrs by microbroth dilution method. In kind it is functional.
A further assay relates to Escherichia coli. Kind of assay: Antimicrobial activity against Escherichia coli ATCC 25922 after 18 to 24 hrs by microbroth dilution method. In kind it is functional.
The next assay has as its system Listeria monocytogenes. The assay can be described thus: Antimicrobial activity against Listeria monocytogenes ATCC 7644 after 18 to 24 hrs by microbroth dilution method. In kind it is functional.
The next assay deals with Staphylococcus aureus. The assay can be described thus: Antimicrobial activity against Staphylococcus aureus NRRL B-767 after 18 to 24 hrs by microbroth dilution method. In kind it is functional.

Converted amounts (≈) assume the structure as drawn.

The term IC50 denotes the concentration needed to halve the response being measured. Broadly, the MIC is the lowest concentration that inhibits growth of the organism. Read a high MIC as a need for much substance.

Regarding `Cc1ccc(-c2cs/c(=N/NC(=O)CSc3nnnn3C)n2-c2ccccc2)cc1`, the figures for the IC50 in the assay on C6 [1] and in the assay on NIH3T3 were 36.3 µg/mL (≈ 83 µM) and 243 µg/mL (≈ 556 µM), respectively. Moreover, in the assay on C6 [2], the viability at 200 µg/mL was 39.7%. Moreover, in the assay on C6 [3], the viability at 100 µg/mL turned out to be 39.7%. The viability at 50 µg/mL in the assay with C6 [4] came to 44.3%. The viability at 25 µg/mL in the assay with C6 [5] amounted to 60.7%. The viability at 12 µg/mL with C6 [6] is 68.8%. Also, in the assay with C6 [7], the viability at 6 µg/mL is 88%. Also, the MIC in the assay on Candida albicans is 250 µg/mL (≈ 571 µM); against Fusarium culmorum it was 125 µg/mL (≈ 286 µM); with Fusarium verticillioides, 250 µg/mL (≈ 571 µM); against Fusarium solani it was 250 µg/mL (≈ 571 µM); with Aspergillus ochraceus, 250 µg/mL (≈ 571 µM); against Trichoderma harzianum, 125 µg/mL (≈ 286 µM). The minimum inhibitory concentration (MIC) in the assay with Penicillium chrysogenum is 250 µg/mL (≈ 571 µM); with Aspergillus parasiticus, 250 µg/mL (≈ 571 µM); in the assay on Bacillus subtilis, 500 µg/mL (≈ 1140 µM); in the assay on Micrococcus luteus it was 250 µg/mL (≈ 571 µM); with Pseudomonas aeruginosa, 250 µg/mL (≈ 571 µM); against Escherichia coli, 250 µg/mL (≈ 571 µM). Moreover, the minimal inhibitory concentration (MIC) in the assay with Listeria monocytogenes and against Staphylococcus aureus was 250 µg/mL (≈ 571 µM) in each case.

As to `Cc1nnc(SCC(=O)N/N=c2/scc(-c3ccc([N+](=O)[O-])cc3)n2-c2ccccc2)s1`, in the assay on NIH3T3, the IC50 was found to be 177 µg/mL (≈ 365 µM). The MIC against Candida albicans, in the assay on Fusarium culmorum, against Fusarium verticillioides, against Fusarium solani, against Aspergillus ochraceus and in the assay with Trichoderma harzianum was 250 µg/mL (≈ 516 µM) each time. The minimal inhibitory concentration (MIC) in the assay with Penicillium chrysogenum, in the assay with Aspergillus parasiticus, in the assay with Bacillus subtilis, against Micrococcus luteus, against Pseudomonas aeruginosa and in the assay with Escherichia coli was 250 µg/mL (≈ 516 µM) in each case. Moreover, the MIC was 250 µg/mL (≈ 516 µM) against Listeria monocytogenes and 500 µg/mL (≈ 1030 µM) against Staphylococcus aureus.

In turn, `Cn1cnnc1SCC(=O)N/N=c1/scc(-c2ccc(F)cc2)n1-c1ccccc1` showed an IC50 in the assay with NIH3T3 of 65 µg/mL (≈ 148 µM). The MIC in the assay on Candida albicans, against Fusarium culmorum, against Fusarium verticillioides, in the assay with Fusarium solani, in the assay on Aspergillus ochraceus and in the assay on Trichoderma harzianum was 250 µg/mL (≈ 567 µM) each time. Moreover, the minimal inhibitory concentration (MIC) is 250 µg/mL (≈ 567 µM) with Penicillium chrysogenum; 250 µg/mL (≈ 567 µM) in the assay with Aspergillus parasiticus; 250 µg/mL (≈ 567 µM) against Bacillus subtilis; 250 µg/mL (≈ 567 µM) with Micrococcus luteus; 125 µg/mL (≈ 284 µM) in the assay on Pseudomonas aeruginosa; 125 µg/mL (≈ 284 µM) in the assay on Escherichia coli. Further, the minimum inhibitory concentration (MIC) against Listeria monocytogenes and against Staphylococcus aureus was 125 µg/mL (≈ 284 µM) throughout.

As for `Cc1nnc(SCC(=O)N/N=c2/scc(-c3ccc(C#N)cc3)n2-c2ccccc2)s1`, the half-maximal inhibitory concentration (IC50) in the assay on NIH3T3 was below 3.9 µg/mL. Besides, the MIC stood at 250 µg/mL (≈ 538 µM) with Candida albicans; 250 µg/mL (≈ 538 µM) with Fusarium culmorum; 250 µg/mL (≈ 538 µM) in the assay on Fusarium verticillioides; 250 µg/mL (≈ 538 µM) against Fusarium solani; 250 µg/mL (≈ 538 µM) in the assay with Aspergillus ochraceus; 125 µg/mL (≈ 269 µM) against Trichoderma harzianum. The MIC with Penicillium chrysogenum, against Aspergillus parasiticus, against Bacillus subtilis, in the assay with Micrococcus luteus, in the assay with Pseudomonas aeruginosa and against Escherichia coli was 250 µg/mL (≈ 538 µM) in each case. For the same molecule, the minimal inhibitory concentration (MIC) in the assay on Listeria monocytogenes and in the assay on Staphylococcus aureus was 250 µg/mL (≈ 538 µM) throughout.

In turn, `Cn1cnnc1SCC(=O)N/N=c1/scc(-c2ccc([N+](=O)[O-])cc2)n1-c1ccccc1` registered an IC50 in the assay with NIH3T3 of 133 µg/mL (≈ 285 µM). Further, the MIC with Candida albicans, with Fusarium culmorum, in the assay on Fusarium verticillioides, in the assay with Fusarium solani, against Aspergillus ochraceus and with Trichoderma harzianum was 250 µg/mL (≈ 535 µM) in each case. Moreover, the MIC with Penicillium chrysogenum turned out to be 250 µg/mL (≈ 535 µM); in the assay on Aspergillus parasiticus it was 250 µg/mL (≈ 535 µM); with Bacillus subtilis, 125 µg/mL (≈ 267 µM); with Micrococcus luteus it was 125 µg/mL (≈ 267 µM); against Pseudomonas aeruginosa it was 250 µg/mL (≈ 535 µM); against Escherichia coli, 250 µg/mL (≈ 535 µM). Moreover, the MIC in the assay on Listeria monocytogenes and against Staphylococcus aureus was 250 µg/mL (≈ 535 µM) in each case.
